Values joined by “and” are separate entries in the source; they are usually repeats but may differ in a detail not shown here. Equal values may be shown once. Read-outs that look alike come from different tables or passages of the source. A value given as a limit tells only on which side of the number the result lay.

Test [1] addresses T1, thymidylate synthase (TS) from L1210 mouse leukaemia cells (Mus musculus, UniProt P07607).
T1 construct: obtained in partially purified form from L1210 mouse leukaemia cells; endogenous in cells; host or cells: L1210 mouse leukaemia cells (enzyme partially purified)
Briefly: Inhibition of isolated L1210 thymidylate synthase. It counts as biochemical. The settings on record: read-out: Inhibition of isolated L1210 TS, Kiapp.

Test [2] deals with T2, reduced-folate carrier (RFC) (Mus musculus, UniProt P41438).
T2 construct: endogenous in cells; host or cells: L1210
T2 sequence (P41438 1-512): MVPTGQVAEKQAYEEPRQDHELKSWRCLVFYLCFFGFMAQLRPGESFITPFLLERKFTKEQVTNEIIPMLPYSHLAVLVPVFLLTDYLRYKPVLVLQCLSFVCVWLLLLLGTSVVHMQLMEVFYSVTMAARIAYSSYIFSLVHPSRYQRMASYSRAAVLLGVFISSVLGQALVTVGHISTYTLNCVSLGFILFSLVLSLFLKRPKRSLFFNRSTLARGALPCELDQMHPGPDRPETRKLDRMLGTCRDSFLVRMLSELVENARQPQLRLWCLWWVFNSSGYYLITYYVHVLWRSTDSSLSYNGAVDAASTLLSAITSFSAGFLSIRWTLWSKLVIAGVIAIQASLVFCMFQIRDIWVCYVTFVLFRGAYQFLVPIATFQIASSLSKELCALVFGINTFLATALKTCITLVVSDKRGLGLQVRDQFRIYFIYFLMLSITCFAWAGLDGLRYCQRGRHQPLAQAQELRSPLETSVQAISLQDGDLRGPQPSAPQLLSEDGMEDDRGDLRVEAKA
Put plainly: Inhibition of 3H MTX uptake in L1210 cells. It counts as cell-based. The settings on record: Inhibition of 3H MTX uptake Ki, L1210, mouse L1210 tumor cells; high Ki = low affinity for RFC.

For test [3], the target named is T3, reduced-folate carrier (RFC) (Homo sapiens, UniProt P41440).
T3 construct: endogenous in cells; host or cells: W1L2
T3 sequence (P41440 1-591): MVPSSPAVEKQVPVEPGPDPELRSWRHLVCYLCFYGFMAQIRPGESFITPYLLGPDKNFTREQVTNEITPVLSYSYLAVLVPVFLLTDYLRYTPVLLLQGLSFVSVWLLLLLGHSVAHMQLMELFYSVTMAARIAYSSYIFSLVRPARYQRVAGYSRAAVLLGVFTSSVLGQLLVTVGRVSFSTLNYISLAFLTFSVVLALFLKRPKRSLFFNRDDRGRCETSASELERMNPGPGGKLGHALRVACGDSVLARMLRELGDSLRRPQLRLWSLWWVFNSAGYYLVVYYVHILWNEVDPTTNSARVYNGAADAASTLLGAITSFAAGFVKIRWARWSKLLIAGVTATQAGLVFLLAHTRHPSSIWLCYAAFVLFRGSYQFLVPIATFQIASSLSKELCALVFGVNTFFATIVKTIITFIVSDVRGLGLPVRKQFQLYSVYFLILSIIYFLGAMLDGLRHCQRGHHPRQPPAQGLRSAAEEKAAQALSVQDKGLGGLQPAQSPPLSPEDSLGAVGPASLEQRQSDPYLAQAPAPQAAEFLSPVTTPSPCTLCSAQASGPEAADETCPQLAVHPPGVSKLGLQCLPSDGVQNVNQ
Briefly: Inhibition of 3H MTX uptake in W1L2 cells. It is filed as cell-based. The settings on record: Inhibition of 3H MTX uptake Ki, W1L2, human lymphoblastoid W1L2 cells; high Ki = low affinity for RFC.

In test [4] the target is T4, α-FR (Mus musculus, UniProt P35846).
T4 construct: endogenous in cells; host or cells: mouse L1210-FBP cells
T4 sequence (P35846 25-232): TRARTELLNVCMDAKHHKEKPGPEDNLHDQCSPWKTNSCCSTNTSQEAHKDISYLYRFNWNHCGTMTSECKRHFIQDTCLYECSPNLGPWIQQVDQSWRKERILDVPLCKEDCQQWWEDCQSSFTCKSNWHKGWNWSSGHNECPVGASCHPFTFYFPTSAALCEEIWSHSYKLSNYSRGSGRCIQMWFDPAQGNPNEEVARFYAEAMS
Put plainly: Binding to α-FR relative to folic acid, L1210-FBP cells. The settings on record: L1210-FBP mouse tumor cells overexpressing α-FR; folic acid = 1.

Test [5] deals with T5, α-FR (Homo sapiens, UniProt P15328).
T5 construct: expressed in transfected cells; host or cells: A431 (human vulvar carcinoma)
T5 sequence (P15328 25-234): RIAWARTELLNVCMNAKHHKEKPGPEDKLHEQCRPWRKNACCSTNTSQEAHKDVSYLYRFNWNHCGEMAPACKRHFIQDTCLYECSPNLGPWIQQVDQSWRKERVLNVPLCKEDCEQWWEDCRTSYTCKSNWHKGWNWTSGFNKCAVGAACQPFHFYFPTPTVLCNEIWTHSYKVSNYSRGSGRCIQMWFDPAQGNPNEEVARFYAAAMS
Briefly: Binding to α-FR relative to folic acid, A431-FBP cells. The following applies: human A431 cells transfected with α-FR; folic acid = 1.

The test system of another test is KB cells. Briefly: Inhibition of cell growth, KB cells.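 On all read-outs here: KB nasopharyngeal carcinoma cells express the α-folate receptor, and leucovorin at 20 nM was the folate source in the growth medium.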 The following applies: for fold increased IC50 in presence of folic acid, KB: IC50 + 1 μM FA vs without FA.
A further test concerns A431 cells. Put plainly: Inhibition of cell growth, A431 cells. The following applies: for fold increased IC50 in presence of folic acid, A431: IC50 + 1 μM FA vs without FA.
In a further test the test system is A431-FBP cells. Put plainly: Inhibition of cell growth, A431-FBP cells. The following applies: for fold increased sensitivity compared with A431, A431-FBP: A431 IC50 vs A431-FBP IC50; for fold increased IC50 in presence of folic acid, A431-FBP: IC50 + 1 μM FA vs without FA.
Setting [6] is: Homo sapiens, KB, read-out: Inhibition of cell growth, IC50, KB, 20 nM LV.
The mark [7] stands for this setting: Homo sapiens, A-431, read-out: Inhibition of cell growth, IC50, A431.
The mark [8] stands for this setting: Homo sapiens, read-out: Inhibition of cell growth, IC50, A431-FBP.
Setting [9] is: read-out: Inhibition of cell growth, IC50, KB + 1 μM FA, 20 nM LV, + 1 μM folic acid.
[10] abbreviates: read-out: Inhibition of cell growth, IC50, A431 + 1 μM FA, 20 nM LV, + 1 μM folic acid.
Where [11] appears, read: read-out: Inhibition of cell growth, IC50, A431-FBP + 1 μM FA, 20 nM LV, + 1 μM folic acid.

T1 sequence (P07607 whole entry): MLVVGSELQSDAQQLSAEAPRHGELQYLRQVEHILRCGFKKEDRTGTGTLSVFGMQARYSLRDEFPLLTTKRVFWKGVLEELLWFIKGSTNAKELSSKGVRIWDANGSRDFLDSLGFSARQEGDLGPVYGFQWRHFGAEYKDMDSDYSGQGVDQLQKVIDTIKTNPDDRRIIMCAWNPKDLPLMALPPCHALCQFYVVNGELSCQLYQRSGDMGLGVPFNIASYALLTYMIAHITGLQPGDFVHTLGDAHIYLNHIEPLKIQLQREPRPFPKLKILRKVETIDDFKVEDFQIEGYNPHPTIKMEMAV

As to `C#CCN(c1ccc(C(=O)N[C@@H](CCC(=O)N[C@H](CCC(=O)O)C(=O)O)C(=O)O)cc1)C1CCc2cc3nc(C)[nH]c(=O)c3cc21` (mixture of isomers) [CB300638 (R, S), N-{-{4-[N-((6RS)-2-methyl-4-oxo-3,4,7,8-tetrahydro-6H-cyclopenta[g]quinazolin-6-yl)-N-(prop-2-ynyl)amino]benzoyl}-L-γ-glutamyl}-D-glutamic acid], the Ki turned out to be 0.42 nM in test [1], 166000 ± 34000 nM in test [2] and 279000 ± 146000 nM in test [3]. In addition, the “Inverse relative affinity for α-FR, L1210-FBP” value on α-FR [4] is recorded as 0.60 ± 0.06. Moreover, the “Inverse relative affinity for α-FR, A431-FBP” value on α-FR [5] is recorded as 0.59 ± 0.03. For the same compound, the “fold increased IC50 in presence of folic acid, KB” value (from here on “fold increased IC50 … KB”) with KB cells (20 nM LV) is “(140) fold”. The values for the IC50 in the test on KB cells (setting [6]), in the test on A431 cells (setting [7]) and with A431-FBP cells (setting [8]) were 5.3 ± 2.5 nM, 1400 ± 230 nM and 6.5 ± 0.1 nM, respectively. For the same compound, the “fold increased IC50 in presence of folic acid, A431” value in the test on A431 cells (20 nM LV) is on record as “(1) fold”. Also, in the test on A431-FBP cells (20 nM LV), the “fold increased sensitivity compared with A431, A431-FBP” value (“fold increased sensitivity” for short) was “(220) fold”. In addition, the “fold increased IC50 in presence of folic acid, A431-FBP” value (shortened to “fold increased IC50 … A431-FBP”) in the test with A431-FBP cells (20 nM LV) is “(130) fold”.
Consider `C#CCN(c1ccc(C(=O)N[C@@H](CCC(=O)N[C@H](CCC(=O)O)C(=O)O)C(=O)O)cc1)[C@H]1CCc2cc3nc(C)[nH]c(=O)c3cc21` [CB300638 (S)], for which the Ki in test [1] is 0.33 ± 0.16 nM; in test [2], above 250000 nM; in test [3], 115000 ± 12000 nM. Also, the “Inverse relative affinity for α-FR, L1210-FBP” value on α-FR [4] worked out at 0.66 ± 0.08. The “Inverse relative affinity for α-FR, A431-FBP” value at α-FR [5] came out at 0.53 ± 0.07. Moreover, the “fold increased IC50 … KB” value in the test on KB cells (20 nM LV) is “(110) fold”. Also, the IC50 in the test with KB cells (setting [6]) worked out at 3.6 ± 1.5 nM; in the test on KB cells (setting [9]), 390 ± 180 nM; in the test on A431 cells (setting [7]), 810 ± 310 nM; with A431 cells (setting [10]), 970 ± 580 nM; in the test with A431-FBP cells (setting [8]), 3 ± 2.1 nM; in the test on A431-FBP cells (setting [11]), 490 ± 170 nM. Besides, the “fold increased IC50 in presence of folic acid, A431” value in the test with A431 cells (20 nM LV) is on record as “(1) fold”. The “fold increased sensitivity” value with A431-FBP cells (20 nM LV) is on record as “(270) fold”. For the same compound, the “fold increased IC50 … A431-FBP” value in the test on A431-FBP cells (20 nM LV) is reported as “(160) fold”.
Consider `C#CCN(c1ccc(C(=O)N[C@@H](CCC(=O)N(C)C(CCC(=O)O)C(=O)O)C(=O)O)cc1)C1CCc2cc3nc(C)[nH]c(=O)c3cc21` (mixture of isomers) [CB300899 (R, S), N-methyl-N-{N-{4-[N-((6RS)-2-methyl-4-oxo-3,4,7,8-tetrahydro-6H-cyclopenta[g]quinazolin-6-yl)-N-(prop-2-ynyl)amino]benzoyl}-L-γ-glutamyl}-L-glutamic acid], for which the Ki in test [1] is 0.78 nM; in test [2], above 250000 nM; in test [3] it was above 250000 nM. Moreover, the “Inverse relative affinity for α-FR, L1210-FBP” value at α-FR [4] amounted to 0.62 ± 0.04. Moreover, the “Inverse relative affinity for α-FR, A431-FBP” value at α-FR [5] is reported as 0.64 ± 0.046. Moreover, the “fold increased IC50 … KB” value in the test with KB cells (20 nM LV) is on record as “(430) fold”. For the same compound, the IC50 was found to be 5.1 ± 0.31 nM with KB cells (setting [6]); 2200 ± 400 nM in the test with KB cells (setting [9]); 2200 ± 170 nM with A431 cells (setting [7]); 2100 ± 58 nM in the test on A431 cells (setting [10]); 0.92 ± 0.12 nM with A431-FBP cells (setting [8]); 1900 ± 170 nM in the test with A431-FBP cells (setting [11]). Also, the “fold increased IC50 in presence of folic acid, A431” value in the test on A431 cells (20 nM LV) is recorded as “(1) fold”. For the same compound, the “fold increased sensitivity” value in the test with A431-FBP cells (20 nM LV) is listed as “(2400) fold”. Moreover, in the test with A431-FBP cells (20 nM LV), the “fold increased IC50 … A431-FBP” value is given as “(2100) fold”.
On to `C#CCN(c1ccc(C(=O)N[C@@H](CCC(=O)N[C@H](CCC(=O)O)C(=O)O)C(=O)O)c(F)c1)C1CCc2cc3nc(C)[nH]c(=O)c3cc21` (mixture of isomers) [CB300947 (R, S), N-{N-{4-[N-((6RS)-2methyl-4-oxo-3,4,7,8-tetrahydro-6H-cyclopenta[g]-quinazolin-6-yl)-N-(prop-2-ynyl)amino]-2-fluorobenzoyl}-L-γ-glutamyl}-D-glutamic acid], for which the Ki is 0.46 nM and 0.77 nM in test [1]; above 250000 nM in test [2]; 97000 nM and 315000 nM in test [3]. On α-FR [4], the “Inverse relative affinity for α-FR, L1210-FBP” value turned out to be 0.73 ± 0.01. Besides, on α-FR [5], the “Inverse relative affinity for α-FR, A431-FBP” value is 0.58 ± 0.017. Besides, the “fold increased IC50 … KB” value in the test on KB cells (20 nM LV) is “(73) fold”. Further, the IC50 in the test with KB cells (setting [6]) was determined as 8 ± 1 nM; with KB cells (setting [9]), 580 ± 30 nM; in the test on A431 cells (setting [7]) it was 1400 ± 260 nM; in the test on A431 cells (setting [10]), 1200 ± 510 nM; in the test on A431-FBP cells (setting [8]) it was 9.4 ± 4 nM; with A431-FBP cells (setting [11]) it was 930 ± 210 nM. Further, the “fold increased IC50 in presence of folic acid, A431” value with A431 cells (20 nM LV) is “(1) fold”. In addition, the “fold increased sensitivity” value in the test on A431-FBP cells (20 nM LV) was “(150) fold”. The “fold increased IC50 … A431-FBP” value in the test on A431-FBP cells (20 nM LV) is “(100) fold”.

The IC50 is the point on the concentration scale where inhibition reaches its midpoint.

The values above are taken from patent US7528141B2, “Use of cyclopenta[g]quinazoline derivatives for treating cancer” (BTG International Limited, priority 2001, dated 2009).
